Patent US12723063B2, “GIPR-agonist compounds” (Eli Lilly and Company, priority 2019, dated 2026)
pKi: −log10 of the molar value. *1 amine or outer side, *2 acyl side, *3 side chain or, on linkers, in order; H or OH if unused. Where a SMILES comes first, the peptide text is derived from it. Side-chain parts run from the residue outwards. [ ]: non-standard residue; d: D form. The star is where a group is joined. C20 diacid = O=C(O)CCCCCCCCCCCCCCCCCCC(=O)*; C18 diacid = O=C(O)CCCCCCCCCCCCCCCCC(=O)*; αMePhe(2-F) = C[C@](N)(Cc1ccccc1F)C(=O)O; γGlu = O=C(O)[C@H](CCC(=O)[*:2])N[*:1]; 4Pal = N[C@@H](Cc1ccncc1)C(=O)O; αMeL = CC(C)C[C@](C)(N)C(=O)O; AEEA = NCCOCCOCC(=O)O; Aib = CC(C)(N)C(=O)O

Assays:
[1] = biological target: T1, human GLP-1R (Homo sapiens, UniProt P43220); assay: [125I]-GLP-1 binding, SPA with WGA beads, 0.1% bacitracin; conditions: geometric mean, read-out: hGLP1R Ki
T1 construct: expressed in transfected cells; crude membranes
T1 sequence (P43220 24-463): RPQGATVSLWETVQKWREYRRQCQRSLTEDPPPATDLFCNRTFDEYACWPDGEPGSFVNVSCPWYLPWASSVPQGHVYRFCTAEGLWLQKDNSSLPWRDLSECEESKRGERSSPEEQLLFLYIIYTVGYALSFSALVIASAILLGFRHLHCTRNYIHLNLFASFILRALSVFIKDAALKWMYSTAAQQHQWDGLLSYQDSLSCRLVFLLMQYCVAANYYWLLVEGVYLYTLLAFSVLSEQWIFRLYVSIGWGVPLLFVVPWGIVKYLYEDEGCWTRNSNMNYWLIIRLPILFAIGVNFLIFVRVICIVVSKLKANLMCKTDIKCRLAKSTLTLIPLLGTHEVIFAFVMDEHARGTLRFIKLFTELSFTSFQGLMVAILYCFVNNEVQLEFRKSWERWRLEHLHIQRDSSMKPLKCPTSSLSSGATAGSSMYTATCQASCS
How it was run: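 Binding buffer was 25 mM HEPES pH 7.4 with 2.5 mM CaCl2, 1 mM MgCl2, 0.1% (w/v) bacitracin, 0.003% Tween-20 and EDTA-free protease inhibitors. Four-parameter regression gave IC50, converted to Ki (geometric mean, SEM, n independent days).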

[2] = biological target: T2, human GcgR (Homo sapiens, UniProt P47871); assay: [125I]-Glucagon binding, SPA with WGA beads, 0.1% bacitracin; conditions: geometric mean, read-out: hGcgR Ki
T2 construct: expressed in transfected cells; crude membranes
T2 sequence (P47871 26-477): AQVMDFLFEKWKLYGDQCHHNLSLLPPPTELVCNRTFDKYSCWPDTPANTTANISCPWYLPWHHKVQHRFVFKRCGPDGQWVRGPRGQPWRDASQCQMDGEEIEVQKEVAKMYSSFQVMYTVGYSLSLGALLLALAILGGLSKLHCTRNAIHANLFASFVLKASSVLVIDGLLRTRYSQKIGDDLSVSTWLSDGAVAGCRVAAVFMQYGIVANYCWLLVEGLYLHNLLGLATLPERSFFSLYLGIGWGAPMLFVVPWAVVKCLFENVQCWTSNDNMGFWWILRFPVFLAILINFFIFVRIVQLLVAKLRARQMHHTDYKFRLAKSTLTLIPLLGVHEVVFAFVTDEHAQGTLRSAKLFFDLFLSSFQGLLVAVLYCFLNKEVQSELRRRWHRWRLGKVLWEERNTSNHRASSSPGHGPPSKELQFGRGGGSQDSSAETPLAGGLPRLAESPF
How it was run: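 SPA competition binding with WGA beads on crude membranes from HEK293 cells stably expressing hGcgR. Buffer: 25 mM HEPES pH 7.4, 2.5 mM CaCl2, 1 mM MgCl2, 0.1% bacitracin, 0.003% Tween-20; 10-point 3-fold dilutions, NSB with 1 μM Gcg.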

[3] = biological target: T3, human GIPR (Homo sapiens, UniProt P48546); assay: [125I]-GIP binding, SPA with WGA beads, 0.1% bacitracin; conditions: geometric mean, read-out: hGIPR Ki
T3 construct: expressed in transfected cells; crude membranes
T3 sequence (P48546 22-466): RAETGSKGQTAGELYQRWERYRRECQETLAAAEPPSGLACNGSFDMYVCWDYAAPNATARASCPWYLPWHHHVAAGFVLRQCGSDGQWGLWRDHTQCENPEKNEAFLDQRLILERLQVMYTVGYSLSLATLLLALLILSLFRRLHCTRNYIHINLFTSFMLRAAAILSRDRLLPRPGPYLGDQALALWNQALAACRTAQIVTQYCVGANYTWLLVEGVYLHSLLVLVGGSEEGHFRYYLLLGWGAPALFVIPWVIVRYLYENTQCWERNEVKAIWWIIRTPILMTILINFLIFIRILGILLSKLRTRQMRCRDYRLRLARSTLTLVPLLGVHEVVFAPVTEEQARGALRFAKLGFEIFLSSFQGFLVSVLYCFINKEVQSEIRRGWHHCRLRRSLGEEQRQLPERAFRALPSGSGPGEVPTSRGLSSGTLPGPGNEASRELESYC
How it was run: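 Ki values are geometric means (SEM, n independent days), derived from four-parameter nonlinear regression of IC50. Membranes came from hGIPR-expressing CHO cells.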

SMILES	pKi [1]	pKi [2]	pKi [3]
CC[C@H](C)[C@H](NC(=O)[C@H](Cc1ccccc1)NC(=O)[C@@H](NC(=O)CNC(=O)[C@H](CCC(=O)O)NC(=O)C(C)(C)NC(=O)[C@@H](N)Cc1ccc(O)cc1)[C@@H](C)O)C(=O)N[C@@H](CO)C(=O)N[C@@H](CC(=O)O)C(=O)N[C@@H](Cc1ccc(O)cc1)C(=O)N[C@@H](CO)C(=O)N[C@H](C(=O)NC(C)(C)C(=O)N[C@@H](CC(C)C)C(=O)N[C@@H](CC(=O)O)C(=O)N[C@@H](CCCCN)C(=O)N[C@@H](CCCCNC(=O)COCCOCCNC(=O)COCCOCCNC(=O)CC[C@H](NC(=O)CCCCCCCCCCCCCCCCC(=O)O)C(=O)O)C(=O)N[C@@H](Cc1c[nH]cn1)C(=O)N[C@@H](CCC(N)=O)C(=O)NC(C)(C)C(=O)N[C@@H](CC(=O)O)C(=O)N[C@@H](Cc1ccccc1)C(=O)N[C@H](C(=O)N[C@@H](CCC(=O)O)C(=O)N[C@@H](Cc1ccncc1)C(=O)N[C@@H](CC(C)C)C(=O)N[C@@H](CC(C)C)C(=O)N[C@@H](C)C(=O)NCC(=O)NCC(=O)N1CCC[C@H]1C(=O)N[C@@H](CO)C(=O)N[C@@H](CO)C(=O)NCC(=O)N[C@@H](C)C(=O)N1CCC[C@H]1C(=O)N1CCC[C@H]1C(=O)N1CCC[C@H]1C(=O)N[C@@H](CO)C(N)=O)C(C)C)[C@@H](C)CC [Example 24]	6.14	< 6.02	9.60
CC[C@H](C)[C@H](NC(=O)[C@H](CO)NC(=O)[C@H](Cc1ccc(O)cc1)NC(=O)[C@H](CC(=O)O)NC(=O)[C@H](CO)NC(=O)[C@@H](NC(=O)[C@H](Cc1ccccc1)NC(=O)[C@@H](NC(=O)CNC(=O)[C@H](CCC(=O)O)NC(=O)[C@@H](C)NC(=O)[C@@H](N)Cc1ccc(O)cc1)[C@@H](C)O)[C@@H](C)CC)C(=O)N[C@@H](CC(C)C)C(=O)N[C@@H](CC(C)C)C(=O)N[C@@H](CC(=O)O)C(=O)N[C@@H](CCCCN)C(=O)N[C@@H](CCCCNC(=O)COCCOCCNC(=O)COCCOCCNC(=O)CC[C@H](NC(=O)CCCCCCCCCCCCCCCCC(=O)O)C(=O)O)C(=O)N[C@@H](C)C(=O)N[C@@H](CCC(N)=O)C(=O)NC(C)(C)C(=O)N[C@@H](CC(=O)O)C(=O)N[C@@H](Cc1ccccc1)C(=O)N[C@H](C(=O)N[C@@H](CC(N)=O)C(=O)N[C@@H](Cc1c[nH]c2ccccc12)C(=O)N[C@@H](CC(C)C)C(=O)N[C@@H](CC(C)C)C(=O)N[C@@H](C)C(=O)NCC(=O)NCC(=O)N1CCC[C@H]1C(=O)N[C@@H](CO)C(=O)N[C@@H](CO)C(=O)NCC(=O)N[C@@H](C)C(=O)N1CCC[C@H]1C(=O)N1CCC[C@H]1C(=O)N1CCC[C@H]1C(=O)N[C@@H](CO)C(N)=O)C(C)C [Example 19] (H-Y[dA]EGTFISDYSILLDKK([AEEA-AEEA-γGlu-C18 diacid])AQ[Aib]DFVNWLLAGGPSSGAPPPS-NH2)	7.82	6.47	10.33
CC[C@H](C)[C@H](NC(=O)[C@H](CO)NC(=O)[C@H](Cc1ccc(O)cc1)NC(=O)[C@H](CC(=O)O)NC(=O)[C@H](CO)NC(=O)[C@@H](NC(=O)[C@](C)(Cc1ccccc1F)NC(=O)[C@@H](NC(=O)CNC(=O)[C@H](CCC(=O)O)NC(=O)C(C)(C)NC(=O)[C@@H](N)Cc1ccc(O)cc1)[C@@H](C)O)[C@@H](C)CC)C(=O)N[C@@H](C)C(=O)N[C@@H](CC(C)C)C(=O)N[C@@H](CC(=O)O)C(=O)N[C@@H](CCCCN)C(=O)N[C@H](C(=O)N[C@@H](Cc1c[nH]cn1)C(=O)N[C@@H](CCC(N)=O)C(=O)NC(C)(C)C(=O)N[C@@H](CC(=O)O)C(=O)N[C@@H](Cc1ccccc1)C(=O)N[C@H](C(=O)N[C@@H](CCC(=O)O)C(=O)N[C@@H](Cc1ccncc1)C(=O)N[C@@H](CCCCNC(=O)COCCOCCNC(=O)COCCOCCNC(=O)CC[C@H](NC(=O)CCCCCCCCCCCCCCCCCCC(=O)O)C(=O)O)C(=O)N[C@@H](CC(C)C)C(=O)N[C@@H](CCC(=O)O)C(=O)N[C@@H](C)C(=O)NCC(=O)N1CCC[C@H]1C(=O)N[C@@H](CO)C(=O)N[C@@H](CO)C(=O)NCC(=O)N[C@@H](C)C(=O)N1CCC[C@H]1C(=O)N1CCC[C@H]1C(=O)N1CCC[C@H]1C(=O)N[C@@H](CO)C(N)=O)C(C)C)[C@@H](C)CC [Example 113] (H-Y[Aib]EGT[αMePhe(2-F)]ISDYSIALDKIHQ[Aib]DFVE[4Pal]K([AEEA-AEEA-γGlu-C20 diacid])LEAGPSSGAPPPS-NH2)	< 6.04	6.09	9.97
CC[C@H](C)[C@H](NC(=O)[C@H](Cc1ccccc1)NC(=O)[C@@H](NC(=O)CNC(=O)[C@H](CCC(=O)O)NC(=O)C(C)(C)NC(=O)[C@@H](N)Cc1ccc(O)cc1)[C@@H](C)O)C(=O)N[C@@H](CO)C(=O)N[C@@H](CC(=O)O)C(=O)N[C@@H](Cc1ccc(O)cc1)C(=O)N[C@@H](CO)C(=O)N[C@H](C(=O)N[C@@](C)(CC(C)C)C(=O)N[C@@H](CC(C)C)C(=O)N[C@@H](CC(=O)O)C(=O)N[C@@H](CCCCN)C(=O)N[C@@H](CCCCNC(=O)COCCOCCNC(=O)COCCOCCNC(=O)CC[C@H](NC(=O)CCCCCCCCCCCCCCCCCCC(=O)O)C(=O)O)C(=O)N[C@@H](Cc1c[nH]cn1)C(=O)N[C@@H](CCC(N)=O)C(=O)NC(C)(C)C(=O)N[C@@H](CC(=O)O)C(=O)N[C@@H](Cc1ccccc1)C(=O)N[C@H](C(=O)N[C@@H](CCC(=O)O)C(=O)N[C@@H](Cc1ccncc1)C(=O)N[C@@H](CC(C)C)C(=O)N[C@@H](CC(C)C)C(=O)N[C@@H](CCC(=O)O)C(=O)N[C@@H](C)C(=O)NCC(=O)N1CCC[C@H]1C(=O)N[C@@H](CO)C(=O)N[C@@H](CO)C(=O)NCC(=O)N[C@@H](C)C(=O)N1CCC[C@H]1C(=O)N1CCC[C@H]1C(=O)N1CCC[C@H]1C(=O)N[C@@H](CO)C(N)=O)C(C)C)[C@@H](C)CC [Example 3]	6.42	6.47	10.28
CC[C@H](C)[C@H](NC(=O)[C@H](Cc1ccccc1)NC(=O)[C@@H](NC(=O)CNC(=O)[C@H](CCC(=O)O)NC(=O)C(C)(C)NC(=O)[C@@H](N)Cc1ccc(O)cc1)[C@@H](C)O)C(=O)N[C@@H](CO)C(=O)N[C@@H](CC(=O)O)C(=O)N[C@@H](Cc1ccc(O)cc1)C(=O)N[C@@H](CO)C(=O)N[C@H](C(=O)N[C@@](C)(CC(C)C)C(=O)N[C@@H](CC(C)C)C(=O)N[C@@H](CC(=O)O)C(=O)N[C@@H](CCCCN)C(=O)N[C@@H](CCCCNC(=O)COCCOCCNC(=O)COCCOCCNC(=O)CC[C@H](NC(=O)CCCCCCCCCCCCCCCCCCC(=O)O)C(=O)O)C(=O)N[C@@H](Cc1c[nH]cn1)C(=O)N[C@@H](CCC(N)=O)C(=O)NC(C)(C)C(=O)N[C@@H](CC(=O)O)C(=O)N[C@@H](Cc1ccccc1)C(=O)N[C@H](C(=O)N[C@@H](CCC(=O)O)C(=O)N[C@@H](Cc1ccncc1)C(=O)N[C@@H](CC(C)C)C(=O)N[C@@H](CC(C)C)C(=O)N[C@@H](C)C(=O)N[C@@H](CCC(N)=O)C(=O)NCC(=O)N1CCC[C@H]1C(=O)N[C@@H](CO)C(=O)N[C@@H](CO)C(=O)NCC(=O)N[C@@H](C)C(=O)N1CCC[C@H]1C(=O)N1CCC[C@H]1C(=O)N1CCC[C@H]1C(=O)N[C@@H](CO)C(N)=O)C(C)C)[C@@H](C)CC [Example 79] (H-Y[Aib]EGTFISDYSI[αMeL]LDKK([AEEA-AEEA-γGlu-C20 diacid])HQ[Aib]DFVE[4Pal]LLAQGPSSGAPPPS-NH2)	6.31	6.05	10.64
